Tests used:
Brd2(1) = biological target: T1, Brd2(1) (Homo sapiens, UniProt P25440); test: DSF thermal shift; assay type: binding; conditions: wild type
T1 construct: Plasmids of the eight single BET bromodomain constructs Brd2(1), Brd2(2), Brd3(1), Brd3(2); His6 (N); made in house; host or cells: E. coli BL21(DE3)
Procedure: (§1) DSF assays were performed on a LightCycler®480 from Roche or a Mx3005P Real Time PCR machine from Stratagene. […] SYPRO®Orange from Invitrogen Molecular Probes® was used as a reporter dye to monitor the denaturing process of the proteins. Samples were assayed on a 96-well plate with final protein concentrations of 2 μM for the LightCycler®480 and 6 μM for Mx3005P. Compounds were added at a final concentration of 10 μM for the LightCycler®480 and 30 μM for Mx3005P, while the tetra acetylated histone peptide was added to a final concentration of 100 μM and 300 μM respectively. […] The temperature was raised with a step of 0.6° C. per minute from 37° C. to 95° C. with the LightCycler®480 collecting 39 measurements per ° C., and 1° C. per minute from 25° C. to 95° C. with Mx3005P, collecting fluorescence readings at the end of each interval. Each sample was run in triplicates.
(§2) Collected data was analysed by IGOR Pro 6, a scientific software tool from Wave Metrics, Inc. Analysis was done following the recommendations of Niesen et al.. Fluorescence intensity was plotted as a function of temperature, generating a sigmoidal curve described by a two-state transition from folded to unfolded protein. Curves were fitted by the following sigmoidal equation: […]
(§3) A1 and A2 are the values of minimum and maximum intensities, respectively, x0 is the inflection point and dx is the rate. Fitted curves were differentiated in IGOR Pro 6 and the maximum of the first derivative was identified using the same program. These values correspond to the inflection points of the transition curves and thus to the melting temperatures of the proteins (Tm).

Brd2(2) = biological target: T2, Brd2(2) (Homo sapiens, UniProt P25440); test: DSF thermal shift; assay type: binding; conditions: wild type
T2 construct: Plasmids of the eight single BET bromodomain constructs Brd2(1), Brd2(2), Brd3(1), Brd3(2); His6 (N); made in house; host or cells: E. coli BL21(DE3)
T2 sequence (P25440 344-453 limits assumed): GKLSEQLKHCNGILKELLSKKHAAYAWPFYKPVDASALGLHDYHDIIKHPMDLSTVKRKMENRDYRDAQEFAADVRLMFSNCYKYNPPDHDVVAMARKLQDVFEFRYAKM
Procedure: as §1, §2, §3

Brd2(1) Leu110-Ile = Brd2(1) Leu110-Ile (Homo sapiens, UniProt P25440, L110I); test: DSF thermal shift; assay type: binding; set-up: Plasmids of the eight single BET bromodomain constructs Brd2(1), Brd2(2), Brd3(1), Brd3(2); His6 (N); made in house; host or cells: E. coli BL21(DE3); conditions: mutant
Chain of Brd2(1) Leu110-Ile (P25440 74-180 L110I limits assumed): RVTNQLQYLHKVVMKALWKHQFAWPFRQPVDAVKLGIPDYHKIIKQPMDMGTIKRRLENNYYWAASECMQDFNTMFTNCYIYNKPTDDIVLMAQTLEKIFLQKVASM
Procedure: as §1, §2, §3

Brd2(1)*(Leu110-Ala) = Brd2(1)*(Leu110-Ala) (Homo sapiens, UniProt P25440, L110A); test: DSF thermal shift; assay type: binding; set-up: Plasmids of the eight single BET bromodomain constructs Brd2(1), Brd2(2), Brd3(1), Brd3(2); His6 (N); made in house; host or cells: E. coli BL21(DE3); conditions: mutant
Chain of Brd2(1)*(Leu110-Ala) (P25440 74-180 L110A limits assumed): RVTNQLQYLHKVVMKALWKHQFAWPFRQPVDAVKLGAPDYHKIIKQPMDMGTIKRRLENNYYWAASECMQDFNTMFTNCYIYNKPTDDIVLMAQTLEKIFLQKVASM
Procedure: as §1, §2, §3

Brd2(2) Leu383-Ile = Brd2(2) Leu383-Ile (Homo sapiens, UniProt P25440, L383I); test: DSF thermal shift; assay type: binding; set-up: Plasmids of the eight single BET bromodomain constructs Brd2(1), Brd2(2), Brd3(1), Brd3(2); His6 (N); made in house; host or cells: E. coli BL21(DE3); conditions: mutant
Chain of Brd2(2) Leu383-Ile (P25440 344-453 L383I limits assumed): as the sequence (P25440 344-453 limits assumed) above, with L40I counted along it
Procedure: as §1, §2, §3

Brd2(2)*(Leu383-Ala) = Brd2(2)*(Leu383-Ala) (Homo sapiens, UniProt P25440, L383A); test: DSF thermal shift; assay type: binding; set-up: Plasmids of the eight single BET bromodomain constructs Brd2(1), Brd2(2), Brd3(1), Brd3(2); His6 (N); made in house; host or cells: E. coli BL21(DE3); conditions: mutant
Chain of Brd2(2)*(Leu383-Ala) (P25440 344-453 L383A limits assumed): as the sequence (P25440 344-453 limits assumed) above, with L40A counted along it
Procedure: as §1, §2, §3

Brd4(1) = biological target: T3, Brd4(1) (Homo sapiens, UniProt O60885); test: DSF thermal shift; assay type: binding; conditions: wild type
T3 construct: Plasmids of the eight single BET bromodomain constructs Brd2(1), Brd2(2), Brd3(1), Brd3(2), Brd4(1), Brd4(2), Brdt(1) and Brdt(2); His6 (N); made in house; host or cells: E. coli BL21(DE3)
Procedure: as §1, §2, §3

Brd4(2) = biological target: T4, Brd4(2) (Homo sapiens, UniProt O60885); test: DSF thermal shift; assay type: binding; conditions: wild type
T4 construct: Plasmids of the eight single BET bromodomain constructs Brd2(1), Brd2(2), Brd3(1), Brd3(2), Brd4(1), Brd4(2), Brdt(1) and Brdt(2); His6 (N); made in house; host or cells: E. coli BL21(DE3)
Procedure: as §1, §2, §3

[1] = test system: Brd2(1) and (2) wild type and leucine to alanine, valine and isoleucine mutants; test: DSF thermal stabilization (FIG. 15); assay type: binding, human; conditions: result in words
Procedure: as §1, §2, §3

Brd2(1)*(Met165-Leu) = biological target: T5, Brd2(1)*(Met165-Leu) (Homo sapiens, UniProt P25440, M165L); test: DSF thermal shift; assay type: binding; conditions: mutant
T5 construct: Plasmids of the eight single BET bromodomain constructs Brd2(1), Brd2(2), Brd3(1), Brd3(2); His6 (N); made in house; host or cells: E. coli BL21(DE3)
T5 sequence (P25440 74-180 M165L limits assumed): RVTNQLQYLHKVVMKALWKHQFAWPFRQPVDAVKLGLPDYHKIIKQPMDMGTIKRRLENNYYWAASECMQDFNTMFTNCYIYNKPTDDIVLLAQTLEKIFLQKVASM
Procedure: (§4) DSF assays were performed on a LightCycler®480 from Roche or a Mx3005P Real Time PCR machine from Stratagene. Prior to DSF assays, frozen proteins were buffer exchanged using Vivaspin®6 concentrators with a 10 kDa cutoff on a Centrifuge 5430 from Eppendorf at a speed of 6000×g to remove glycerol and to buffer the proteins in 20 mM HEPES pH 7.5 at 25° C. and 100 mM NaCl. SYPRO®Orange from Invitrogen Molecular Probes® was used as a reporter dye to monitor the denaturing process of the proteins. Samples were assayed on a 96-well plate with final protein concentrations of 2 μM for the LightCycler®480 and 6 μM for Mx3005P. Compounds were added at a final concentration of 10 μM for the LightCycler®480 and 30 μM for Mx3005P, while the tetra acetylated histone peptide was added to a final concentration of 100 μM and 300 μM respectively. […] The temperature was raised with a step of 0.6° C. per minute from 37° C. to 95° C. with the LightCycler®480 collecting 39 measurements per ° C., and 1° C. per minute from 25° C. to 95° C. with Mx3005P, collecting fluorescence readings at the end of each interval. Each sample was run in triplicates.
as §2, §3

Brd2(2)*(Met438-Ala) = biological target: T6, Brd2(2)*(Met438-Ala) (Homo sapiens, UniProt P25440, M438A); test: DSF thermal shift; assay type: binding; conditions: mutant
T6 construct: Plasmids of the eight single BET bromodomain constructs Brd2(1), Brd2(2), Brd3(1), Brd3(2); His6 (N); made in house; host or cells: E. coli BL21(DE3)
T6 sequence (P25440 344-453 M438A limits assumed): as the sequence (P25440 344-453 limits assumed) above, with M95A counted along it
Procedure: as §4, §2, §3

Brd2(2)*(Met438-Leu) = biological target: T7, Brd2(2)*(Met438-Leu) (Homo sapiens, UniProt P25440, M438L); test: DSF thermal shift; assay type: binding; conditions: mutant
T7 construct: Plasmids of the eight single BET bromodomain constructs Brd2(1), Brd2(2), Brd3(1), Brd3(2); His6 (N); made in house; host or cells: E. coli BL21(DE3)
T7 sequence (P25440 344-453 M438L limits assumed): as the sequence (P25440 344-453 limits assumed) above, with M95L counted along it
Procedure: as §4, §2, §3

Solubility observations = conditions: observation in words
Brd2(1)*(Met165Ala) = Brd2(1)*(Met165Ala) (Homo sapiens, UniProt P25440, M165A); test: DSF thermal shift; assay type: binding; set-up: Plasmids of the eight single BET bromodomain constructs Brd2(1), Brd2(2), Brd3(1), Brd3(2); His6 (N); made in house; host or cells: E. coli BL21(DE3); conditions: mutant
Chain of Brd2(1)*(Met165Ala) (P25440 74-180 M165A limits assumed): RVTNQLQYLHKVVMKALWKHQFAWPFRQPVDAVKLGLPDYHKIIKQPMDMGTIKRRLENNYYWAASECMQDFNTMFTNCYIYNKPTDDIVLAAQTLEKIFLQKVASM
Procedure: as §4, §2, §3

T1 sequence (P25440 74-180 limits assumed): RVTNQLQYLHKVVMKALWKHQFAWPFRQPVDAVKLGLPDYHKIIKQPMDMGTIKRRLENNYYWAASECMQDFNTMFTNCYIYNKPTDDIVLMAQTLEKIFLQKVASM

Structure (SMILES)	Thermal stabilisation brd2(1) (Brd2(1)) [°C]	ΔTm Brd2(1) (Brd2(1)) [K]	Thermal stabilisation brd2(2) (Brd2(2)) [°C]	ΔTm Brd2(2) (Brd2(2)) [K]	Thermal stabilisation brd2(1)L110I (Brd2(1) Leu110-Ile) [°C]	ΔTm Brd2(1)*(Leu110-Ile) (Brd2(1) Leu110-Ile) [K]	Thermal stabilisation brd2(1)L110A (Brd2(1)*(Leu110-Ala)) [°C]	ΔTm Brd2(1)*(Leu110-Ala) (Brd2(1)*(Leu110-Ala)) [K]	Thermal stabilisation brd2(2)V383I (Table 1); Brd2(2) Leu383-Ile (text) (Brd2(2) Leu383-Ile) [°C]	ΔTm Brd2(2)*(Leu383-Ile) (Brd2(2) Leu383-Ile) [K]	Thermal stabilisation brd2(2)L383A (Brd2(2)*(Leu383-Ala)) [°C]	ΔTm Brd2(2)*(Leu383-Ala) (Brd2(2)*(Leu383-Ala)) [K]	ΔTm Brd4(1) (Brd4(1)) [K]	ΔTm Brd4(2) (Brd4(2)) [K]	Thermal stabilization of Brd2 mutants versus wild types (FIG. 15) [1]	ΔTm Brd2(1)*(Met165-Leu) (Brd2(1)*(Met165-Leu)) [K]	ΔTm Brd2(2)*(Met165-Ala) (Brd2(2)*(Met438-Ala)) [K]	ΔTm Brd2(2)*(Met165-Leu) (Brd2(2)*(Met438-Leu)) [K]	Solubility (Solubility observations)	ΔTm Brd2(1)*(Met165-Ala) (Brd2(1)*(Met165Ala)) [K]
COC(=O)CC1(C)N=C(c2ccc(Cl)cc2)c2cc(OC)ccc2-n2c(C)nnc21 (racemic) [Compound 5, (+−)-methyl 2-(6-(4-chlorophenyl)-8-methoxy-1,4-dimethyl-4H-benzo[f][1,2,4]triazolo[4,3-a][1,4]diazepin-4-yl)acetate]	2.2 ± 0.3	2.2 ± 0.3	5.3 ± 0.3	5.3 ± 0.3	3.3 ± 0.4	3.3 ± 0.3	2.9 ± 0.4	2.9 ± 0.4	6.8 ± 0.1	6.8 ± 0.1	6.6 ± 0.4	6.6 ± 0.4	–	–	–	–	–	–	–	–
COC(=O)[C@@H](C)[C@@H]1N=C(c2ccc(Cl)cc2)c2cc(OC)ccc2-n2c(C)nnc21 (racemic) [Compound 6, (+−)-methyl (S)-2-((S)-6-(4-chlorophenyl)-8-methoxy-1-methyl-4H-benzo[f][1,2,4]triazolo[4,3-a][1,4]diazepin-4-yl)propanoate]	−0.3 ± 0.2	−0.3 ± 0.2	0.2 ± 0.2	0.2 ± 0.2	0.0 ± 0.5	0.0 ± 0.5	1.6 ± 0.2	1.6 ± 0.2	0.3 ± 0.2	0.3 ± 0.2	0.8 ± 0.6	0.8 ± 0.6	–	–	–	–	–	–	–	–
CC[C@H](C(=O)OC)[C@@H]1N=C(c2ccc(Cl)cc2)c2cc(OC)ccc2-n2c(C)nnc21 (racemic) [Compound 14, (+−)-methyl (S)-2-((S)-6-(4-chlorophenyl)-8-methoxy-1-methyl-4H-benzo[f][1,2,4]triazolo[4,3-a][1,4]diazepin-4-yl)butanoate]	–	1.0 ± 0.3	–	0.9 ± 0.4	–	0.5 ± 0.0	–	1.8 ± 0.4	–	0.9 ± 0.3	–	2.4 ± 0.6	0.5 ± 0.1	0.1 ± 0.1	–	–	–	–	–	–
COC(=O)CC1N=C(c2ccc(Cl)cc2)c2cc(OC)ccc2-n2c(C)nnc21 (racemic) [I-BET-OMe, (+−)-methyl 2-(6-(4-chlorophenyl)-8-methoxy-1-methyl-4H-benzo[f][1,2,4]triazolo[4,3-a][1,4]diazepin-4-yl)acetate, reference compound]	–	–	–	–	–	–	–	–	–	–	–	–	–	–	no selective stabilization of the mutant proteins	–	–	–	–	–
COc1ccc(-c2ccc(S(=O)(=O)Nc3ccc4c(c3)CN(C)C(=O)N4)cc2)cc1 [Compound 50, 4′-methoxy-N-(3-methyl-2-oxo-1,2,3,4-tetrahydroquinazolin-6-yl)-[1,1′-biphenyl]-4-sulfonamide]	–	–	–	0.7 ± 0.2	–	–	–	–	–	–	–	–	–	–	–	1.7 ± 0.1	4.1 ± 0.1	3.8 ± 0.2	solubility of the compound decreased	5.3 ± 0.3
Cc1cccc(S(=O)(=O)Nc2ccc3c(c2)CN(C)C(=O)N3)c1 [Compound 53, 3-methyl-N-(3-methyl-2-oxo-1,2,3,4-tetrahydroquinazolin-6-yl)benzenesulfonamide]	–	0.0 ± 0.3	–	0.7 ± 0.1	–	–	–	–	–	–	–	–	–	–	–	0.0 ± 0.1	0.0 ± 0.1	0.0 ± 0.0	low solubility	0.0 ± 0.1

— US20170122958A1, “Enzymes Functional Probes” (University of Dundee, priority 2013, published 2017)
